Test results from ChEMBL document CHEMBL4406807, “Discovery of 3,4,6-Trisubstituted Piperidine Derivatives as Orally Active, Low hERG Blocking Akt Inhibitors via Conformational Restriction and Structure-Based Design” (J Med Chem, 2019).

How the values were obtained:
OVCAR-8 = assay: Antiproliferative activity against human OVCAR8 cells; format: functional, cell-based
[1] = molecular target: RAC-alpha serine/threonine-protein kinase (Homo sapiens, UniProt P31749)
Description: Inhibition of human Akt1 expressed in Escherichia coli using STK Substrate 2-biotin as substrate incubated for 1 hr by HTRF assay

HCT-116 = assay: cells; conditions: Homo sapiens, HCT-116, 72 h
hERG (KCNH2) = hERG (KCNH2) (Homo sapiens, UniProt Q12809); assay: Inhibition of ERG in human HEK293 cells at 3 uM at -80 mV holding potential by whole-cell patch clamp assay relative to control; format: cell-based; conditions: HEK293 cells expressing ERG
LNCaP = assay: Antiproliferative activity against human LNCAP cells; format: functional, cell-based

RAC-alpha serine/threonine-protein kinase, sequence (P31749 whole entry): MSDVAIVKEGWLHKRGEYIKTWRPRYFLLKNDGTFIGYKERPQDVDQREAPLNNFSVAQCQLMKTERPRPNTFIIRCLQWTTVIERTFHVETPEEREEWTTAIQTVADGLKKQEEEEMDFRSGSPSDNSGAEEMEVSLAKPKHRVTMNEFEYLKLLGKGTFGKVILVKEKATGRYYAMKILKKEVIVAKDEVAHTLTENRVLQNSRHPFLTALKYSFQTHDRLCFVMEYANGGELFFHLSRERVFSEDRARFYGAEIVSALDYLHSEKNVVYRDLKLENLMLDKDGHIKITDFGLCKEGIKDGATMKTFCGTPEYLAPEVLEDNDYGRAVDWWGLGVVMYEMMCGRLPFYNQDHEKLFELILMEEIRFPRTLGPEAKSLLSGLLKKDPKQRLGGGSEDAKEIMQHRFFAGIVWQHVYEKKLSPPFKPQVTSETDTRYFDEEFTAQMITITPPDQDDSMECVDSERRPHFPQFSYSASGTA
hERG (KCNH2), sequence (Q12809 whole entry): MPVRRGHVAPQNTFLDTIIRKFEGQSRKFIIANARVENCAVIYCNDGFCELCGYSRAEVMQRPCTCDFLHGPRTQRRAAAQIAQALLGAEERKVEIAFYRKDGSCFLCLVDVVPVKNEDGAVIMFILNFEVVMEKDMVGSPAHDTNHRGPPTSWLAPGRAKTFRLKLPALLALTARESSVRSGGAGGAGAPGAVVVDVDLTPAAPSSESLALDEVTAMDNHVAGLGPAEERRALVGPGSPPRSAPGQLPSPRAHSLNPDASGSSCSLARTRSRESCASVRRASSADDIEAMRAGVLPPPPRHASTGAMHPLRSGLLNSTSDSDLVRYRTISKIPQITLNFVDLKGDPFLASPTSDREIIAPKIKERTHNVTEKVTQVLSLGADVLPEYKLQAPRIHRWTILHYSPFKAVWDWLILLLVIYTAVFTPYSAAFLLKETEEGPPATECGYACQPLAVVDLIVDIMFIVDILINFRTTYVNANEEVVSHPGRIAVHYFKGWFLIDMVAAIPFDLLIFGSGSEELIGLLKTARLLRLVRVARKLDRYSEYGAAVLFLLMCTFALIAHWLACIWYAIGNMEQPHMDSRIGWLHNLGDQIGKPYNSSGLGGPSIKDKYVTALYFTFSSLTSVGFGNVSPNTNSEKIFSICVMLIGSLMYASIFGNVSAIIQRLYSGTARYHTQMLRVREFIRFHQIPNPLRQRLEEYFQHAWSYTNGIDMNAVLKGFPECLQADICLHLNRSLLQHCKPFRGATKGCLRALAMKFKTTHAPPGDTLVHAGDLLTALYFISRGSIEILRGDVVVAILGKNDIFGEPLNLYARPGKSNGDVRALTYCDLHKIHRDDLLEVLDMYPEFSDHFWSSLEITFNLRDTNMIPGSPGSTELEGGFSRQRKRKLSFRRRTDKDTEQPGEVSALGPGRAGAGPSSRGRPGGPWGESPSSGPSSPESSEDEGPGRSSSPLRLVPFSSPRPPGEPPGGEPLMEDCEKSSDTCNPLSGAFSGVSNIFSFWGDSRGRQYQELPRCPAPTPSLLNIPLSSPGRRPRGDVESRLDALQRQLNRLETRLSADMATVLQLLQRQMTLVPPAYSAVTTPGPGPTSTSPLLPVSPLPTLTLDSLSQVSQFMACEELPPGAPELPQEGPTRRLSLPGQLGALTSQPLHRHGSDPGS

Cn1ncc(Cl)c1-c1cc(C(=O)N[C@@H]2CNCC[C@H]2c2ccc(Cl)c(C(F)(F)F)c2)sc1Cl
IC50 (OVCAR-8): 1150 nM
IC50 [1]: 322 nM
IC50 (HCT-116): 1750 nM

Cn1ncc(Cl)c1-c1cc(C(=O)N[C@@H]2CN[C@H](CCNS(C)(=O)=O)C[C@H]2c2ccc(F)c(F)c2)oc1Cl
IC50 (OVCAR-8): 1530 nM
inhibition at 3 µM (hERG (KCNH2)): 8%
IC50 (LNCaP): 50 nM
IC50 [1]: 3.29 nM
IC50 (HCT-116): 920 nM

Cn1ncc(Cl)c1-c1cc(C(=O)N[C@@H]2CN[C@H](CCN3CCOCC3)C[C@H]2c2ccc(Cl)c(Cl)c2)oc1Cl
IC50 (OVCAR-8): 1760 nM
inhibition at 3 µM (hERG (KCNH2)): 82.3%
IC50 (LNCaP): 410 nM
IC50 [1]: 8.78 nM
IC50 (HCT-116): 1560 nM

Cn1ncc(Br)c1-c1ccc(C(=O)N[C@@H]2CNCC[C@H]2c2ccc(Cl)cc2)o1
IC50 (OVCAR-8): 3680 nM
IC50 [1]: 31.2 nM
IC50 (HCT-116): 3760 nM

Cn1ncc(Br)c1-c1ccc(C(=O)N[C@@H]2CNCC[C@H]2c2ccc(F)c(F)c2)cc1
IC50 (OVCAR-8): 2900 nM
IC50 [1]: 73.5 nM
IC50 (HCT-116): 22200 nM

Cn1ncc(Cl)c1-c1cc(C(=O)N[C@@H]2CN[C@H](CC(=O)O)C[C@H]2c2ccc(Cl)c(Cl)c2)oc1Cl
IC50 (OVCAR-8): 5120 nM
inhibition at 3 µM (hERG (KCNH2)): 9.1%
IC50 (LNCaP): 640 nM
IC50 [1]: 1.94 nM
IC50 (HCT-116): 4020 nM

Cn1ncc(Cl)c1-c1cc(C(=O)N[C@@H]2CNCC[C@@H]2c2ccc(F)c(F)c2)oc1Cl
IC50 [1]: 2.5 nM

Cn1nccc1-c1oc(C(=O)N[C@@H]2CNCC[C@H]2c2ccc(Cl)cc2)cc1Br
IC50 (OVCAR-8): 15000 nM
IC50 [1]: 162 nM
IC50 (HCT-116): 13700 nM

Cn1ncc(Cl)c1-c1cc(C(=O)NC2CNCC2c2ccc(C(F)(F)F)cc2)oc1Cl (configuration not stated)
IC50 [1]: 538 nM

Cn1ncc(Cl)c1-c1cc(C(=O)N[C@@H]2CN[C@H](CCn3cncn3)C[C@H]2c2ccc(Cl)c(Cl)c2)oc1Cl
IC50 (OVCAR-8): 1560 nM
inhibition at 3 µM (hERG (KCNH2)): 50.1%
IC50 (LNCaP): 60 nM
IC50 [1]: 4.47 nM
IC50 (HCT-116): 560 nM

Cn1ncc(Cl)c1-c1cc(C(=O)N[C@@H]2CNCC[C@H]2c2ccc(Cl)cc2)n(C)c1Cl
IC50 (OVCAR-8): 12400 nM
IC50 [1]: 149 nM
IC50 (HCT-116): 7330 nM

Cn1ncc(Cl)c1-c1cc(C(=O)NC2CNCCC2c2ccc(F)c(F)c2)oc1Cl (racemic)
IC50 [1]: 6.4 nM

CNc1cc(-c2ccc(C(=O)N[C@@H]3CNCC[C@H]3c3ccc(Cl)cc3)o2)ncn1
IC50 (OVCAR-8): 12300 nM
IC50 [1]: 529 nM
IC50 (HCT-116): 37100 nM

Cn1ncc(Cl)c1-c1cc(C(=O)NC2CNCCC2c2ccccc2)oc1Cl (configuration not stated)
IC50 [1]: 17.6 nM

O=C(N[C@@H]1CNCC[C@H]1c1ccc(Cl)cc1)c1ccc(-c2cn[nH]c2)o1
IC50 (OVCAR-8): 5000 nM
IC50 [1]: 50.3 nM
IC50 (HCT-116): 21800 nM

Cn1ncc(Cl)c1-c1cc(C(=O)N[C@H]2CNCC[C@@H]2c2ccc(F)c(F)c2)oc1Cl
IC50 (OVCAR-8): 490 nM
IC50 [1]: 51.2 nM
IC50 (HCT-116): 1090 nM

Cn1ncc(Cl)c1-c1oc(C(=O)N[C@@H]2CNCC[C@H]2c2ccc(Cl)cc2)cc1Br
IC50 (OVCAR-8): 6050 nM
IC50 [1]: 40 nM
IC50 (HCT-116): 11700 nM

CCC[C@@H]1C[C@@H](c2ccc(Cl)c(Cl)c2)[C@H](NC(=O)c2cc(-c3c(Cl)cnn3C)c(Cl)o2)CN1
IC50 (OVCAR-8): 1620 nM
inhibition at 3 µM (hERG (KCNH2)): 85.3%
IC50 [1]: 10.4 nM
IC50 (HCT-116): 1020 nM

Cn1ncc(Cl)c1-c1cc(C(=O)N[C@@H]2CN[C@H](CCN3CCCC3)C[C@H]2c2ccc(Cl)c(Cl)c2)oc1Cl
IC50 (OVCAR-8): 1840 nM
IC50 (LNCaP): 1920 nM
IC50 [1]: 6.41 nM
IC50 (HCT-116): 1940 nM

Cn1ncc(Cl)c1-c1ccc(C(=O)N[C@@H]2CNCC[C@H]2c2cccc(F)c2)cc1
IC50 (OVCAR-8): 5820 nM
inhibition at 3 µM (hERG (KCNH2)): 10.7%
IC50 [1]: 72.3 nM

Cn1nccc1-c1csc(C(=O)N[C@@H]2CNCC[C@H]2c2ccc(Cl)cc2)c1
IC50 (OVCAR-8): 12600 nM
IC50 [1]: 188 nM
IC50 (HCT-116): 8510 nM

C=CC[C@@H]1C[C@@H](c2ccc(Cl)c(Cl)c2)[C@H](NC(=O)c2cc(-c3c(Cl)cnn3C)c(Cl)o2)CN1
IC50 (OVCAR-8): 990 nM
IC50 (LNCaP): 160 nM
IC50 [1]: 12.4 nM
IC50 (HCT-116): 780 nM

COCC[C@@H]1C[C@@H](c2ccc(Cl)c(Cl)c2)[C@H](NC(=O)c2cc(-c3c(Cl)cnn3C)c(Cl)o2)CN1
IC50 (OVCAR-8): 1060 nM
IC50 (LNCaP): 250 nM
IC50 [1]: 7.01 nM
IC50 (HCT-116): 470 nM

Cn1cc(-c2ccc(C(=O)N[C@@H]3CNCC[C@H]3c3ccc(Cl)cc3)o2)cn1
IC50 (OVCAR-8): 4410 nM
IC50 [1]: > 1000 nM
IC50 (HCT-116): 15100 nM

Cn1ncc(Cl)c1-c1cc(C(=O)NC2CNCCC2c2ccc(Cl)cc2)oc1Cl (configuration not stated)
IC50 [1]: 17.3 nM

Cn1ncc(Cl)c1-c1cc(C(=O)N[C@@H]2CNCC[C@H]2c2ccc(Cl)cc2)sc1Cl
IC50 (OVCAR-8): 2510 nM
IC50 [1]: 449 nM
IC50 (HCT-116): 2440 nM

Cn1nccc1-c1coc(C(=O)NC2CNCCC2c2ccc(F)c(F)c2)c1 (racemic)
IC50 [1]: 191 nM

Cn1ncc(Cl)c1-c1cc(C(=O)N[C@@H]2CN[C@H](CC(=O)NC3CCC3)C[C@H]2c2ccc(Cl)c(Cl)c2)oc1Cl
IC50 (OVCAR-8): 610 nM
IC50 (LNCaP): 80 nM
IC50 [1]: 7.98 nM
IC50 (HCT-116): 430 nM

Cn1ncc(Cl)c1-c1cc(C(=O)N[C@@H]2CNCC[C@H]2c2ccc(Cl)cc2)oc1Cl
IC50 (OVCAR-8): 1320 nM
IC50 [1]: 17.3 nM
IC50 (HCT-116): 1870 nM

Cn1nccc1-c1ccc(C(=O)N[C@@H]2CNCC[C@H]2c2ccc(F)c(F)c2)cc1
IC50 (OVCAR-8): 5330 nM
inhibition at 3 µM (hERG (KCNH2)): 25%
IC50 [1]: 21.6 nM
IC50 (HCT-116): 3720 nM
